Measured values from patent US8501752B2, “Methods for treating cancer and other pathological proliferating disorders by inhibiting mitosis using pyrrolo[2,3-d]pyrimidines” (Duquesne University of the Holy Ghost, priority 2005, dated 2013).

Key:
[1] = tested on: MCF-7 cells; experiment: Cytotoxicity, drug-sensitive MCF-7 cells; settings: read-out: Cytotoxicity IC50, MCF-7; mean ± SEM for 3 experiments
Description: (§2) These cell lines are resistant to anticancer drugs due to overexpression of the transport proteins P-glycoprotein or MRP1.

[2] = tested on: NCI 60 human tumor cell lines; experiment: NCI IVCLSP growth inhibition, whole panel (text summaries); format: cell-based; settings: NCI 60 tumor panel
Procedure: (§1) FIG. 1 presents nine compounds that were tested using the National Cancer Institute (NCI) 60 human tumor cell lines. The cells lines, which represent leukemia, melanoma, and cancers of the lung, colon, brain, ovary, breast, prostate, and kidney, are listed in Table 1.
Compounds 1-9 were tested according to the NCI Developmental Therapeutics Program (DTP) In Vitro Cell Line Screening Project (IVCLSP). […] Methodology for testing under the IVCLSP is as follows: The human tumor cell lines of the cancer screening panel are grown in RPMI 1640 medium containing 5% fetal bovine serum and 2 mM L-glutamine. For a typical screening experiment, cells are inoculated into 96 well microtiter plates in 100 μL at plating densities ranging from 5,000 to 40,000 cells/well depending on the doubling time of individual cell lines. After cell inoculation, the microtiter plates are incubated at 37° C., 5% CO2, 95% air and 100% relative humidity for 24 h prior to addition of experimental drugs.
After 24 h, two plates of each cell line are fixed in situ with TCA, to represent a measurement of the cell population for each cell line at the time of drug addition (Tz). Experimental drugs are solubilized in dimethyl sulfoxide at 400-fold the desired final maximum test concentration and stored frozen prior to use. At the time of drug addition, an aliquot of frozen concentrate is thawed and diluted to twice the desired final maximum test concentration with complete medium containing 50 μg/ml gentamicin. Additional four, 10-fold or ½ log serial dilutions are made to provide a total of five drug concentrations plus control. Aliquots of 100 μl of these different drug dilutions are added to the appropriate microtiter wells already containing 100 μl of medium, resulting in the required final drug concentrations.
Following drug addition, the plates are incubated for an additional 48 h at 37° C., 5% CO2, 95% air, and 100% relative humidity. For adherent cells, the assay is terminated by the addition of cold TCA. Cells are fixed in situ by the gentle addition of 50 μl of cold 50% (w/v) TCA (final concentration, 10% TCA) and incubated for 60 minutes at 4° C. The supernatant is discarded, and the plates are washed five times with tap water and air dried. Sulforhodamine B (SRB) solution (100 μl) at 0.4% (w/v) in 1% acetic acid is added to each well, and plates are incubated for 10 minutes at room temperature. After staining, unbound dye is removed by washing five times with 1% acetic acid and the plates are air dried. Bound stain is subsequently solubilized with 10 mM trizma base, and the absorbance is read on an automated plate reader at a wavelength of 515 nm. For suspension cells, the methodology is the same except that the assay is terminated by fixing settled cells at the bottom of the wells by gently adding 50 μl of 80% TCA (final concentration, 16% TCA). Using the seven absorbance measurements [time zero, (Tz), control growth, (C), and test growth in the presence of drug at the five concentration levels (Ti)], the percentage growth is calculated at each of the drug concentrations levels. Percentage growth inhibition is calculated as: [(Ti−Tz)/(C−Tz)]×100 for concentrations for which Ti>/=Tz [(Ti−Tz)/Tz]×100 for concentrations for which Ti<Tz.
Three dose response parameters are calculated for each experimental agent. […] The drug concentration resulting in total growth inhibition (TGI) is calculated from Ti=Tz. […]

[3] = biological target: T1, P-glycoprotein (Homo sapiens, UniProt P08183); experiment: P-glycoprotein antagonism: sensitivity of NCI/ADR cells to vinblastine; format: cell-based; settings: absence or presence of 50 nM vinblastine
T1 construct: NCI/ADR cells that overexpress P-glycoprotein; endogenous in cells; host or cells: NCI/ADR cells
T1 sequence (P08183 whole entry): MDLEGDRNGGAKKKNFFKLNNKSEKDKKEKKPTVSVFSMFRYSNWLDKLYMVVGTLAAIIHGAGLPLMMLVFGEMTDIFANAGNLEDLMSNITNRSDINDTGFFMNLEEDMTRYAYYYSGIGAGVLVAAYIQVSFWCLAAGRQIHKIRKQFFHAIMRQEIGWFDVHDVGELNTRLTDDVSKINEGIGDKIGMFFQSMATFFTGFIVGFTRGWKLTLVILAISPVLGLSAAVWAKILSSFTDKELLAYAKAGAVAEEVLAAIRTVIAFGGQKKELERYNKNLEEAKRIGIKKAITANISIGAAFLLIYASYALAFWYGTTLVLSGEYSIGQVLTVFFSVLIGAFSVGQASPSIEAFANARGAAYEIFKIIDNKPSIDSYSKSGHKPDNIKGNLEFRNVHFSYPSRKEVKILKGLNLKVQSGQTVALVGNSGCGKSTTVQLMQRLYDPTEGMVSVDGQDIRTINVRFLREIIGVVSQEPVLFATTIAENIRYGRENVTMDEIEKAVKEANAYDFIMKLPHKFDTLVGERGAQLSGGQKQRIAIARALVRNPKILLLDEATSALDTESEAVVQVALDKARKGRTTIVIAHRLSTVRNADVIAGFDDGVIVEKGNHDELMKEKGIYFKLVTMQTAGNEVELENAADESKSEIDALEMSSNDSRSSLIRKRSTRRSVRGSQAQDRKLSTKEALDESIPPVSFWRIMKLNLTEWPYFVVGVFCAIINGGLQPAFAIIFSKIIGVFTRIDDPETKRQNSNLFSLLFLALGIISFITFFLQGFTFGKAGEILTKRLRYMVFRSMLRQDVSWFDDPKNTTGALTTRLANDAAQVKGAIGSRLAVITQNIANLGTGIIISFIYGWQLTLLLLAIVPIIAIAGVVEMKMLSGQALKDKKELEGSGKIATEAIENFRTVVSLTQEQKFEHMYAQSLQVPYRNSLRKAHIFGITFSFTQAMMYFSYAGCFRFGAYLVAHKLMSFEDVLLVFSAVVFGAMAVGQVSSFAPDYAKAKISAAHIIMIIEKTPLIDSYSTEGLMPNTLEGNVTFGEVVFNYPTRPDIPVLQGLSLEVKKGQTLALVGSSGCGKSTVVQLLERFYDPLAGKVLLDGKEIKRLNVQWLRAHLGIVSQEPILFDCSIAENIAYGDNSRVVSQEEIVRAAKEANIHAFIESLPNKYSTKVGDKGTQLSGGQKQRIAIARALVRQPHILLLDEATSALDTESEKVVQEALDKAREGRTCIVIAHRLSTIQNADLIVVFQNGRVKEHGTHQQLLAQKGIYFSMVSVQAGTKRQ
Description: To determine if this is due to inhibition of drug transport activity by these proteins, the effects of these compounds on P-glycoprotein were further characterized. The effects of the compounds on the sensitivity of NCI/ADR cells to vinblastine and of MCF-7/VP cells to vincristine were examined to evaluate antagonism of P-glycoprotein and MRP1, respectively. FIGS. 4a-b present graphs of antagonism score versus concentration for P-glycoprotein and MRP1, respectively.
The Pgp antagonism score is calculated as the percentage survival of cells in the absence of vinblastine/percentage survival in the presence of vinblastine. […] The MRP1 antagonism score is calculated as the percentage survival of cells in the absence of vincristine/percentage survival in the presence of vincristine. […] Concentrations of Compounds 1-5 above their IC50 toward MCF-7 cells are not indicated. Data for one of three similar experiments is shown.

[4] = tested on: NCI/ADR cells; experiment: Cytotoxicity, NCI/ADR cells that overexpress P-glycoprotein
Description: as §2

[5] = tested on: MCF-7/VP cells; experiment: Cytotoxicity, MCF-7/VP cells that overexpress MRP1; settings: read-out: Cytotoxicity IC50, MCF-7/VP; mean ± SEM for 3 experiments
Description: as §2

[6] = tested on: A498; experiment: NCI IVCLSP growth inhibition (SRB), A498; format: cell-based, human; settings: renal cancer A498 cell
Procedure: as §1
Compounds 1-9 were tested according to the NCI Developmental Therapeutics Program (DTP) In Vitro Cell Line Screening Project (IVCLSP). […] Methodology for testing under the IVCLSP is as follows: The human tumor cell lines of the cancer screening panel are grown in RPMI 1640 medium containing 5% fetal bovine serum and 2 mM L-glutamine. […]
Following drug addition, the plates are incubated for an additional 48 h at 37° C., 5% CO2, 95% air, and 100% relative humidity. […] Bound stain is subsequently solubilized with 10 mM trizma base, and the absorbance is read on an automated plate reader at a wavelength of 515 nm. […] Using the seven absorbance measurements [time zero, (Tz), control growth, (C), and test growth in the presence of drug at the five concentration levels (Ti)], the percentage growth is calculated at each of the drug concentrations levels. Percentage growth inhibition is calculated as: [(Ti−Tz)/(C−Tz)]×100 for concentrations for which Ti>/=Tz [(Ti−Tz)/Tz]×100 for concentrations for which Ti<Tz.
Three dose response parameters are calculated for each experimental agent. […]

[7] = tested on: T24 human bladder carcinoma cells; experiment: Cytotoxicity, T24 cells; format: cell-based; settings: mean ± SEM for 3 experiments

**Q.** With `COc1cccc(CCc2cn(Cc3ccccc3)c3nc(N)nc(C)c23)c1` [Compound 3] as the molecule, how does the IC50 [1] read?
**A.** The IC50 was 8 ± 3.5 µM.

**Q.** And the “GI50 values, level across the tumor cell lines (in words)” value [2]?
**A.** Its value is “micromolar range for 8 of the 56 tumor cell lines”.

**Q.** What about the “effect on P-glycoprotein-mediated resistance (in words)” value [3] of the same molecule?
**A.** The value was “dose-dependent sensitization”.

**Q.** And the “change of cytotoxic potency by substitution (in words)” value ([4]; NCI/ADR, relative to unsubstituted Compound 5)?
**A.** The value was “enhanced the potency”.

**Q.** And the IC50 ([4]; read-out: Cytotoxicity IC50, NCI/ADR, mean ± SEM for 3 experiments)?
**A.** The IC50 was 5.7 ± 0.7 µM.

**Q.** What about the IC50 [5] of the same molecule?
**A.** Its IC50 is 22 ± 4.2 µM.

**Q.** And the “GI50 level (in words)” value [6]?
**A.** Its value is “two digit nanomolar level”.

**Q.** And the IC50 [7]?
**A.** The IC50 was 25 ± 2.9 µM.
